The test system of experiment [1] is S. pyogenes ATCC 12344. Briefly: Disc diffusion assay (DDA). Format: cell-based, Streptococcus pyogenes. The conditions noted are these: 200 μg per disc; Mueller-Hinton agar pH 7.0; 48 hours at 37° C., 5% carbon dioxide. The text has this:
(a) staphylococci. The Staphylococcus aureus strain used was ATCC 29213. S. aureus and other staphylococci are common causes of a wide range of skin, skin structure and wound infections; S. aureus is also known to exacerbate eczema. The ATCC 29213 strain is known to be susceptible to beta-lactam antibiotics such as methicillin. The Staphylococcus epidermidis strain used was NCTC 11047. Staph. epidermidis forms part of the resident flora of skin and is an opportunistic pathogen which can cause biofilms to grow for instance on plastic surgical implants such as catheters. Unless otherwise stated, the staphylococci were cultured and maintained on Mueller-Hinton Medium (agar and broth) at pH 7.2; cultures were incubated aerobically at 37° C. for 19-20 hours, at pH 7 (±0.2). (b) C. striatum NCTC 764. Corynebacterium striatum is closely related to organisms (aerobic diphtheroids of the genus Corynebacterium) that cause body odour. It was cultured and maintained on Mueller-Hinton medium (agar and broth). All cultures were incubated aerobically at 37° C. for 72 hours, at pH 7 (±0.2). (c) streptococci. The strains tested were S. mutans ATCC 25175 and S. pyogenes ATCC 12344. […] The diameter of this zone of “inhibition” was measured using a ProtoCOL™ automated zone sizer (Synbiosis, Cambridge, UK). […]
(In general: Agar diffusion results depend on both activity and mobility in agar.)

Experiment [2] has as its system S. pyogenes ATCC 12344. In words: MBC assay. It is filed as cell-based, Streptococcus pyogenes. The following applies: Mueller-Hinton broth pH 7.0. The source says: (a) staphylococci. The Staphylococcus aureus strain used was ATCC 29213. S. aureus and other staphylococci are common causes of a wide range of skin, skin structure and wound infections; S. aureus is also known to exacerbate eczema. The ATCC 29213 strain is known to be susceptible to beta-lactam antibiotics such as methicillin. The Staphylococcus epidermidis strain used was NCTC 11047. Staph. epidermidis forms part of the resident flora of skin and is an opportunistic pathogen which can cause biofilms to grow for instance on plastic surgical implants such as catheters. Unless otherwise stated, the staphylococci were cultured and maintained on Mueller-Hinton Medium (agar and broth) at pH 7.2; cultures were incubated aerobically at 37° C. for 19-20 hours, at pH 7 (±0.2). (b) C. striatum NCTC 764. Corynebacterium striatum is closely related to organisms (aerobic diphtheroids of the genus Corynebacterium) that cause body odour. It was cultured and maintained on Mueller-Hinton medium (agar and broth). All cultures were incubated aerobically at 37° C. for 72 hours, at pH 7 (±0.2). (c) streptococci. The strains tested were S. mutans ATCC 25175 and S. pyogenes ATCC 12344. S. mutans is a Gram-positive, microaerophilic bacterium which plays a significant role in dental caries and in infective endocarditis. Streptococcus pyogenes is associated with skin, soft tissue, burn and wound infections. […]

A further experiment relates to P. granulosum. Briefly: Agar dilution MIC assay, panel of propionibacterium strains. Format: cell-based, Propionibacterium granulosum. The following applies: resistance MLSK. As for the experimental part: This is a standard international method for quantitatively assessing the antimicrobial activity of a compound in a solid medium. The test compound was prepared to 40× the highest concentration required (eg 10 mg/ml for a final concentration of […]) and a series of doubling dilutions were performed in a suitable solvent. A set amount of these antimicrobial stock solutions was then added to molten agar medium (ca 55° C.), mixed thoroughly, poured into sterile Petri dishes and allowed to cool/set. The culture medium was as described above.
A Multipoint™ Inoculator (AQS Manufacturing Ltd, UK) was used to inoculate the plates by spotting the inocula onto the surface of the agar, delivering approximately 1 to 2 μl per spot (yielding 10^5 CFU (colony forming units) per spot).
The plate(s) were then incubated under the conditions described above, following which they were examined visually for signs of bacterial growth. The MIC value was ascertained when there was a marked reduction in, or total loss of, growth on the test plate at the lowest concentration as compared to that of the growth on the control plate.
The assays were conducted in triplicate and included a positive control (culture medium, diluting solvent and inoculum).
The activity (MIC by agar dilution) of copper usnate was determined against a panel of different propionibacterium strains. […]
A general note: Agar dilution tests growth on a series of plates holding different concentrations.

Among the data in US20120270935A1, “FORMULATIONS” (priority 2009, published 2012) are DDA zone diameter, MBC and MIC values, retold here.

Broadly, the MBC is the lowest tested concentration that kills the bacteria rather than only halting them. Higher therefore signals weaker bactericidal potency. By MIC is commonly meant the lowest concentration found to suppress growth. A higher MIC goes with a less susceptible organism. As for `CC(=O)c1c([O-])c(C)c([O-])c2c1OC1=CC(=O)C(C(C)=O)C(=O)C12C.[Cu+2]` (stereo not shown) [Copper usnate, copper (II) usnate], the DDA zone diameter in the experiment with S. pyogenes ATCC 12344 [1] is reported as 31.3 ± 0.6 mm. For the same molecule, the MBC with S. pyogenes ATCC 12344 [2] was determined as 0.98 µg/mL. Further, the MIC is 1.95 µg/mL against P. granulosum (P. granulosum PRP-005, Erm X) and 1.95 µg/mL against P. granulosum (P. granulosum PRP-019, Erm X).
